Experimental data reported in the NIST ThermoML archive (doi:10.1021/acs.jced.6b00350).
Values joined by “and” are separate entries in the source; they are usually repeats but may differ in a detail not shown here. Identical values can stand only once.

Settings: Liquid, Hot wire method

FC(F)CC(F)(F)F [1,1,1,3,3-pentafluoropropane]
Settings | thermal conductivity
201.86 K, 21419 kPa | 0.124 W/m/K
201.86 K, 21433 kPa | 0.1239 W/m/K
201.87 K, 27158 kPa | 0.1248 W/m/K
202.1 K, 4763 kPa | 0.1206 W/m/K
202.12 K, 10088 kPa | 0.1217 W/m/K
202.12 K, 10097 kPa | 0.1218 W/m/K
202.15 K, 15804 kPa | 0.1229 W/m/K
202.15 K, 15839 kPa | 0.1229 W/m/K
202.2 K, 267 kPa | 0.1193 W/m/K
202.2 K, 275 kPa | 0.1195 W/m/K
202.2 K, 21408 kPa | 0.1237 W/m/K
202.2 K, 21420 kPa | 0.1237 W/m/K
202.21 K, 27161 kPa | 0.1249 W/m/K
202.23 K, 27677 kPa | 0.1252 W/m/K
202.24 K, 27673 kPa | 0.1255 W/m/K
202.24 K, 33666 kPa | 0.1267 W/m/K
202.24 K, 33675 kPa | 0.1266 W/m/K
202.26 K, 40147 kPa | 0.1279 W/m/K
202.26 K, 40151 kPa | 0.1278 W/m/K
202.27 K, 46773 kPa | 0.129 W/m/K
202.27 K, 46779 kPa | 0.1291 W/m/K
202.27 K, 53774 kPa | 0.1304 W/m/K
202.28 K, 53774 kPa | 0.1304 W/m/K
202.28 K, 60672 kPa | 0.1313 W/m/K
202.28 K, 60684 kPa | 0.1319 W/m/K
202.29 K, 67566 kPa | 0.1328 W/m/K
202.29 K, 67588 kPa | 0.1327 W/m/K
202.48 K, 4763 kPa | 0.1205 W/m/K
202.49 K, 10097 kPa | 0.1216 W/m/K
202.49 K, 10103 kPa | 0.1216 W/m/K
202.52 K, 15780 kPa | 0.1229 W/m/K
202.52 K, 15825 kPa | 0.1229 W/m/K
202.57 K, 21412 kPa | 0.1238 W/m/K
202.57 K, 21416 kPa | 0.1237 W/m/K
202.57 K, 27164 kPa | 0.1249 W/m/K
202.58 K, 275 kPa | 0.1195 W/m/K
202.58 K, 288 kPa | 0.1194 W/m/K
202.59 K, 27679 kPa | 0.1253 W/m/K
202.59 K, 27683 kPa | 0.1253 W/m/K
202.59 K, 33679 kPa | 0.1264 W/m/K
202.6 K, 33675 kPa | 0.1265 W/m/K
202.61 K, 40142 kPa | 0.1278 W/m/K
202.62 K, 40147 kPa | 0.1278 W/m/K
202.62 K, 46778 kPa | 0.129 W/m/K
202.62 K, 46780 kPa | 0.1289 W/m/K
202.62 K, 53770 kPa | 0.1302 W/m/K and 0.1303 W/m/K
202.63 K, 60672 kPa | 0.1318 W/m/K
202.63 K, 60673 kPa | 0.1317 W/m/K
202.63 K, 67539 kPa | 0.1325 W/m/K
202.63 K, 67552 kPa | 0.1327 W/m/K
202.89 K, 4767 kPa | 0.1203 W/m/K
202.89 K, 4772 kPa | 0.1204 W/m/K
202.9 K, 10110 kPa | 0.1216 W/m/K
202.92 K, 15810 kPa | 0.1227 W/m/K
202.92 K, 15863 kPa | 0.1227 W/m/K
202.97 K, 21416 kPa | 0.1236 W/m/K
202.97 K, 21421 kPa | 0.1236 W/m/K
202.97 K, 27152 kPa | 0.1247 W/m/K
202.97 K, 27157 kPa | 0.1247 W/m/K
202.98 K, 27682 kPa | 0.1253 W/m/K
202.98 K, 33690 kPa | 0.1266 W/m/K
202.99 K, 306 kPa | 0.1193 W/m/K
202.99 K, 337 kPa | 0.1194 W/m/K
202.99 K, 27679 kPa | 0.1252 W/m/K
202.99 K, 33685 kPa | 0.1265 W/m/K
203 K, 40148 kPa | 0.1278 W/m/K
203 K, 46783 kPa | 0.1289 W/m/K and 0.129 W/m/K
203 K, 53771 kPa | 0.1302 W/m/K
203 K, 53775 kPa | 0.1301 W/m/K
203 K, 60661 kPa | 0.1314 W/m/K
203 K, 60670 kPa | 0.1314 W/m/K
203 K, 67499 kPa | 0.1327 W/m/K
203 K, 67521 kPa | 0.1326 W/m/K
203.01 K, 40146 kPa | 0.1276 W/m/K
203.32 K, 4769 kPa | 0.1202 W/m/K
203.32 K, 4775 kPa | 0.1202 W/m/K
203.33 K, 10125 kPa | 0.1214 W/m/K
203.33 K, 10131 kPa | 0.1214 W/m/K
203.34 K, 15898 kPa | 0.1226 W/m/K
203.35 K, 15840 kPa | 0.1227 W/m/K
203.39 K, 27154 kPa | 0.1246 W/m/K
203.39 K, 27157 kPa | 0.1243 W/m/K
203.4 K, 21419 kPa | 0.1235 W/m/K
203.4 K, 33699 kPa | 0.1263 W/m/K
203.4 K, 67478 kPa | 0.1323 W/m/K
203.41 K, 27689 kPa | 0.1252 W/m/K
203.41 K, 33685 kPa | 0.1264 W/m/K
203.41 K, 46771 kPa | 0.1289 W/m/K
203.41 K, 46773 kPa | 0.1287 W/m/K
203.41 K, 53771 kPa | 0.1302 W/m/K
203.41 K, 53772 kPa | 0.1301 W/m/K
203.41 K, 60658 kPa | 0.1313 W/m/K
203.41 K, 60664 kPa | 0.1315 W/m/K
203.41 K, 67491 kPa | 0.1325 W/m/K
203.42 K, 40141 kPa | 0.1277 W/m/K
203.42 K, 40147 kPa | 0.1276 W/m/K
203.43 K, 372 kPa | 0.119 W/m/K
203.43 K, 393 kPa | 0.1193 W/m/K
203.83 K, 67450 kPa | 0.1325 W/m/K
203.83 K, 67465 kPa | 0.1324 W/m/K
203.84 K, 53769 kPa | 0.13 W/m/K
203.84 K, 60649 kPa | 0.1313 W/m/K and 0.1311 W/m/K
203.85 K, 27696 kPa | 0.1251 W/m/K
203.85 K, 33690 kPa | 0.1263 W/m/K
203.85 K, 33700 kPa | 0.1263 W/m/K
203.85 K, 46765 kPa | 0.1288 W/m/K
203.85 K, 46774 kPa | 0.1288 W/m/K
203.85 K, 53757 kPa | 0.13 W/m/K
203.86 K, 27682 kPa | 0.125 W/m/K
203.86 K, 40135 kPa | 0.1275 W/m/K
203.86 K, 40141 kPa | 0.1276 W/m/K
221.72 K, 250 kPa | 0.1129 W/m/K
221.72 K, 251 kPa | 0.113 W/m/K
221.73 K, 4830 kPa | 0.1143 W/m/K
221.73 K, 4854 kPa | 0.1145 W/m/K
221.74 K, 10031 kPa | 0.1155 W/m/K
221.75 K, 10011 kPa | 0.1159 W/m/K
221.76 K, 15754 kPa | 0.1169 W/m/K
221.76 K, 15760 kPa | 0.1169 W/m/K
221.77 K, 21259 kPa | 0.1183 W/m/K
221.77 K, 21264 kPa | 0.1188 W/m/K
221.78 K, 27420 kPa | 0.1202 W/m/K
221.78 K, 27443 kPa | 0.1204 W/m/K
222 K, 39755 kPa | 0.1236 W/m/K
222 K, 39756 kPa | 0.1236 W/m/K
222 K, 47190 kPa | 0.1252 W/m/K
222.01 K, 47202 kPa | 0.1258 W/m/K
222.01 K, 54322 kPa | 0.1269 W/m/K
222.01 K, 54323 kPa | 0.1269 W/m/K
222.02 K, 61325 kPa | 0.1285 W/m/K
222.02 K, 61363 kPa | 0.1286 W/m/K
222.02 K, 67941 kPa | 0.1302 W/m/K
222.02 K, 67960 kPa | 0.13 W/m/K
222.09 K, 253 kPa | 0.1125 W/m/K
222.09 K, 4859 kPa | 0.1139 W/m/K
222.09 K, 4863 kPa | 0.1139 W/m/K
222.1 K, 247 kPa | 0.1124 W/m/K
222.11 K, 10038 kPa | 0.1155 W/m/K
